Measurements published in US8193192B2, “Heterocyclic FXR binding compounds” (Phenex Pharmaceuticals AG, priority 2006, dated 2012).
Values after ≈ are worked out from the molar mass of the structure shown.

Columns and labels:
[1] = Aqueous solubility assay, Protocol B, shake-flask method; type: physicochemical; settings: 10 mM PBS buffer with 1% MeOH, kinetic from dmso stock, 10 mM PBS buffer pH 7.4, 1% MeOH, room temperature, read-out: Aqueous solubility pH 7.4 (μM) (±standard deviation), shake-flask method
Experimental: Aqueous solubility of compounds was determined by nephelometry or by shake-flask method as follows:
Protocol B, Shake-Flask Method:
Sample preparation: Sample and standard solution preparation is performed by mixing equal volumes of acetonitrile containing the internal standard (1 μM final concentration) with sample and calibration standard solutions (100 μl). After vigorously shaking (10 seconds) the samples are centrifuged (6000 g) for 5 minutes at 20° C. Aliquots of the particle-free supernatants are transferred to 200 μl sample vials and subsequently subjected to LC-MS/MS analysis. Assay procedure: Test concentration was 100 μM in 10 mM PBS buffer pH 7.4 with a final MeOH concentration of 1%. The volume of the incubation solution was 500 μl. Depending on each compound's solubility in MeOH, the stock concentration and the incubation concentration was adapted. The test solutions in quadruplicates were shaken at 300 rpm over a 20 hours period at room temperature, followed by centrifugation at 20000 g for 30 minutes to separate the solid phase. 100 μl of particle free sample are added to 100 μl acetonitrile containing the internal standard. The aqueous solubility of the compounds was determined by measuring the concentration of the PBS buffer supernatant by HPLC-MS/MS. Aqueous solubilities of examples and reference compounds are listed below in Table 3.

[2] = Plasma protein binding assay, filtration method; type: in vitro ADME; settings: lithium-heparin plasma, mouse plasma, 37° C., one hour, read-out: Plasma protein binding (%) (±standard deviation) (converted)
Experimental: Plasma Protein Binding Assay
Plasma protein binding was determined using the filtration method:
Preparation of standards: working solutions were prepared for each calibration level by appropriate dilution of the corresponding stock solution. Calibration standards were prepared by spiking 147 μl PBS buffer with 3 μl of the corresponding working solution. Sample preparation: The sample and standard solution preparation was performed by mixing equal volumes of acetonitrile containing the internal standard (1 μM) with 75 μl sample, or 150 μl calibration standard solution, respectively. After vigorously shaking the samples were centrifuged (6000 g) for 5 minutes. Aliquots of the supernatants were subjected to LC-MS/MS analysis. Assay procedure: Compound stock solutions were diluted in acetonitrile to give a 50-fold concentrated working solution. The incubation solutions were prepared by adding 3 μl of a 50-fold concentrated working solution in acetonitrile to 147 μl of lithium-heparin plasma from mice giving an incubation concentration of 1 μM. […] The percentage of compound bound to plasma proteins (% PPB) was calculated using the following equation: PPB[%]=100−(concentrationcompound plasma filtrate/mean concentrationcompound filtrated plasma filtrate)×100.
Applying this protocol, plasmaprotein binding of examples and reference compounds was determined as listed below in Table 5.

[3] = Determination of pharmacokinetic parameters in mice (oral cassette dosing); type: in vivo; settings: C57BL/6 mice, po 5 mg/kg; for Vd: elimination phase; for CL: total body clearance; for Cmax / Tmax / AUC(0-inf) / concentration at 10 min / concentration at 30 min / concentration at 60 min / concentration at 120 min / concentration at 240 min / concentration at 480 min: male, mouse, plasma; for AUC(0-inf): extrapolated to infinity; for concentration at 10 min / concentration at 30 min / concentration at 60 min / concentration at 120 min / concentration at 240 min / concentration at 480 min: cassette, read-out: mean plasma conc.
Experimental: FIG. 1: Graphical depiction of pharmacokinetic data of compound A compared to example 3. Compound plasma concentrations (logarithmic scale) are plottet against sampling timepoints. Conditions: C57BL/6 mice, oral cassette dosing, 5 mg/Kg in 10% HPBCD/20 mM phosphate buffer.
Determination of Pharmacokinetic Parameters in Mice
Data on the rate and extent of absorption of the test compounds were generated. Compounds were applied perorally at 5 mg/kg each to male 8 weeks old C57BL/6 mice and plasma concentrations of the test items were determined by LC-MS/MS. A solution of […] of each test item was produced by diluting them in the vehicle, 10% HPBCD (hydroxypropyl-beta-cyclodextrin) in 20 mM phosphate buffer pH 7.0 (v/w). These solutions were stirred overnight at room temperature and heated to 60° C. for 10 minutes, resulting in a full solubilization. Then, an identical volume of each solution were mixed together to constitute the cassette. The application was performed by administrating the solution perorally to the mice, with an application volume of 10 ml/kg. […] Blood samples were obtained by sacrificing three animals for each time point (10, 30, 60, 120, 240, and 480 min) followed by cardiac puncture. Blood samples were treated with Li-heparin during collection procedure and stored on ice until centrifugation at 645 g (5 min, 4° C.). Plasma was harvested and kept at −20° C. until being assayed. To 50 μl of mouse plasma sample 6 μl acetonitrile containing an internal standard was added. Samples were vigorously shaken and centrifuged for 10 minutes at 6000 g and 20° C. An aliquot of the particle-free supernatant was transferred to 200 μl sampler vials and subsequently subjected to LC MS/MS for quantification.
Concentrations were plotted against sampling time for illustrating higher plasma levels of example 3 compared to plasma levels of compound A. The results are illustrated in FIG. 1.
PK calculation: The pharmacokinetic analysis of raw data was performed by applying a non-compartment model using the PK Solutions 2.0 software (Summit Research Services, Montrose, USA). All given parameters are model independent and were obtained by trapezoid area calculation and have the following meaning:
Cmax obs: maximal measured concentration;
tmax obs: time to reach the maximum measured concentration;
AUC0-∞: area under the concentration-time curve extrapolated to infinity;
Vd: volume of distribution during elimination phase;
CL: total body clearance.

SMILES	solubility at 20 h [1]	fraction unbound at 1 h, 1 µM [2]	Vd [3]	CL [3]	Cmax [3]	Tmax [3]	AUC(0-inf) [3]	concentration at 10 min [3]	concentration at 30 min [3]	concentration at 60 min [3]	concentration at 120 min [3]	concentration at 240 min [3]	concentration at 480 min [3]
Cc1cc(OCc2c(-c3c(Cl)cccc3Cl)noc2C(C)C)cnc1Oc1ccc(C(=O)O)cc1 [Example 3, 4-(5-((3-(2,6-Dichlorophenyl)-5-isopropylisoxazol-4-yl)methoxy)-3-methylpyridin-2-yloxy)benzoic acid]	188 µM (≈ 96.5 µg/mL)	0.021	9.271 L/kg	59 mL/min/kg	904 ng/mL	10 min	1410 ng·h/mL	904 ng/mL	867 ng/mL	291 ng/mL	214 ng/mL	63 ng/mL	20 ng/mL
CC(C)c1onc(-c2c(Cl)cccc2Cl)c1COc1ccc(Oc2ccc(C(=O)O)cc2)cc1 [Compound A, reference compound]	72.4 µM (≈ 36.1 µg/mL)	0.007	110.078 L/kg	343 mL/min/kg	120 ng/mL	10 min	242 ng·h/mL	120 ng/mL	102 ng/mL	43 ng/mL	24 ng/mL	15 ng/mL	8 ng/mL
